Several values for one entry are separate records, joined by “and”; a condition that tells them apart may be missing. Identical values can stand only once. Counter-ions that a name gives are not always drawn. Like-named read-outs stand apart in the source and are kept apart here. Marks after values point to notes of the source that are not given here.
What was measured:
RBL-2H3 cells [1] = test: Maximum tolerated concentration (cytotoxicity by lactate dehydrogenase release); assay type: cell-based, rat; details: for MTC (maximum tolerated concentration): highest concentration not causing cytotoxicity (LDH release); for SI (safety index): ratio between MTC and IC50
Source text: The safety index (SI) of a test compound is the ratio between the maximum tolerated concentration and the IC50 and is used as a measure of the relative safety of the test compound.

RBL-2H3 cells [2] = test: Inhibition of mast cell degranulation (β-hexosaminidase release); assay type: cell-based; details: Rattus norvegicus, RBL-2H3 cells sensitized with anti-DNP IgE, triggered with DNP-HSA
Source text: Mast cells are key effector cells involved in allergic and inflammatory diseases, and the Rat Basophilic Leukemia clone 2H3 (RBL-2H3) cell line is a commonly used model of allergen dependent immune modulator release (degranulation) in mast cells. On their surface, they express the high affinity receptor for IgE (FcεRI) Upon binding of antigen-specific IgE to the receptor, cells become sensitized to the IgE specific antigen (allergen). When IgE-sensitized cells then encounter multivalent antigen, the antigen clusters IgE-FcεRI complexes and initiates a signal transduction cascade that leads to degranulation, that is, the release of inflammatory mediators, such as cytokines, eicosanoids, histamine and enzymes. The assay can be used as a screening method to identify immune-modulating compounds, in particular compounds useful in the medical management of allergic and inflammatory diseases and asthma. β-hexosaminidase was previously shown to be released with the same kinetics as histamine (Schwartz et al., J Immunology; 123:1445-1450 (1979)), thus offering a simple means to monitor degranulation. The RBL-2H3 cell line has been successfully used to identify compounds with anti-allergic activity (Choo et al. Planta Med., 69:518-522 (2003)).
Cell Culture: RBL-2H3 cells obtained from the German Collection of Microorganisms and Cell Cultures (ACC312) (Braunschweig, Germany) were maintained in 70% Minimum Essential Medium with Earle's Salts, 20% RPMI 1640 Medium, 10% FBS and 2 mM L-glutamine in 95% air/5% CO2 at 37° C. and routinely checked for mycoplasma contamination. Cells were passaged every 3-4 days; after washing cells once with 35 ml PBS cells were incubated 8 min with 5 ml 0.05% Trypsin-EDTA solution at 37° C. Cells were removed from the incubator, 15 ml culture medium was added and cells were resuspended by repeated pipetting.
Cell seeding: cells were harvested with Trypsin-EDTA as described and 50-100 μl cell suspension seeded into Costar CellBind 24 well cluster plates (no. 3337). Plates were kept for 30 min at RT under the sterile hood before being transferred to the incubator. Cells were used within one or two days after seeding.
For sensitization, cells for immediate use were sensitized 6-12 h after plating; cells to be used the following day were sensitized 26-38 h after plating. Culture plates were removed from the incubator and checked for cell growth and contamination. The medium was discarded and cells were sensitized with anti-DNP IgE (0.4 μg/ml) in 0.4 ml culture medium overnight. Following overnight sensitization, cells were washed with 0.8 ml pre-warmed TyB and 0.38 ml test compound or vehicle control (supplemented or not with 1% FBS) were added to duplicate wells. Samples were adjusted to contain 1% vehicle for test compounds dissolved in organic solvents. Cells were incubated for 1 h at 37° C. At the end of the incubation period, cells were routinely stimulated with 20 μl DNP-HSA (2 μg/ml; final concentration 0.1 μg/ml) diluted in TyB and cells were incubated for 15 min at 37° C. Alternatively, cells were stimulated with 20 μl 5 μM ionomycin (final concentration 0.25 μM) or 20 μl 5 μM thapsigargin (final concentration 0.25 μM), both in the absence or presence of 20 nM PMA (final concentration). […]
MUG substrate solution, 100 μl, were added to supernatant and lysate samples and plates were incubated 30 min at 37° C. […] Fluorescene was measured at 365 nm excitation and 440 nm emmission wavelengths. […]

[3] = system: collagen type II-induced arthritis (CIA) in mice; details: prophylactic, 0.3 mg/kg intraperitoneally once daily
[4] = system: allergic contact dermatitis response in mice; test: Allergic contact dermatitis (TDI) model in mice, mouse ear swelling test; assay type: in vivo
Experimental: The anti-inflammatory and anti-allergic effects of compound 1a were assessed in a mouse model of allergic contact dermatitis, a response driven primarily by T helper type 2 (Th2) cells. […] In this model, an allergic dermatitis response is obtained by sensitizing mice to TDI and subsequently challenging them with antigen by topical administration onto the ears. A quantitative assessment of anti-inflammatory and anti-allergic effects of topically or orally administered test compounds is possible by measuring the resulting ear swelling.
Female BALB/c-mice were obtained from Charles River (Sulzfeld, Germany) at age 8 weeks. All animals were housed in groups of eight per cage at 22° C. with a 12 h light/dark-cycle. Water and a standard diet (Altromin, Lage/Lippe, Germany) were available ad libitum. All animals were acclimatized for one week before experimental procedures were commenced.
Experimental procedures for BALB/c mice housing, TDI sensitization and challenge, and measurement of ear thickness were performed as previously described (Baumer et al., J Pharm Pharmacol. 55:1107-1114 (2003)) with the following modifications. For active sensitization, 100 μL of 5% (w/v) TDI was administered to the shaved and stripped abdominal epidermis on day one, and for the next three consecutive days, 50 μL of 5% (w/v) TDI was applied. The allergic reaction was boosted 21 days later by application of 50 μL of 0.5% (w/v) TDI. For the examination of test compound effects, the left ears were used for the TDI challenge (20 μL of 0.5% in acetone) and ear thickness measured 3 h before and 24 h after challenge.
Administration time: to determine optimal time for administration treatment groups were treated orally by gavage with 100 mg/kg of compound 1a (suspended in 0.5% tylose, 10 mL/kg) 1, 4 or 16 h before topical TDI challenge. One group was treated with 100 mg/kg miltefosine orally, 16 h before challenge (based on available data for optimal administration time for miltefosine) and vehicle treated mice received tylose (10 mL/kg) orally, 4 h before challenge.
Comparison with dexamethasone: one group of mice was treated orally with compound 1a at 100 mg/kg suspended in 0.5% tylose, 4 h before topical TDI challenge. Vehicle treated mice received 0.5% tylose orally 4 h before challenge. As a positive control, dexamethasone was administered in saline solution at 1 mg/kg or 3 mg/kg, 2 h and 30 min before challenge and 1 h after challenge. The dose and dosing scheme for dexamethasone was based on previous experience showing a maximal effect in this model.
[…] The solution was applied, 2 h before topical TDI challenge by administration of 10 μl onto each of the inner and outer surfaces of the left ears. A vehicle group (n=5) was treated with propyleneglycol. As a positive control, diflorasone diacetate was administered at 0.01% (low dose) and 0.05% (high dose) in 20 μl acetone, 2 h before challenge. A basal control group was left untreated.
Mean and standard error of the mean (SEM) were calculated from individual ear edema values. Statistical evaluation was a one-way analysis of variance (ANOVA) (if the test for normal distribution was passed) or the Kruskal-Wallis one-way ANOVA on Ranks (if the normal distribution test failed). Both were followed by a post-hoc test (Dunnett's method or Dunn's test, respectively). A p<0.05 was considered to be significant.

DTH response in mice = assay type: in vivo; details: 24 h after challenge
Experimental: The anti-inflammatory and anti-allergic effects of compound 1a was assessed in a mouse model of skin delayed-type hypersensitivity (DTH) reactions and compared to a vehicle control and to the reference drug, dexamethasone. DTH reactions are antigen-specific cell-mediated immune responses, driven primarily by T helper type 1 (Th1) cells, similar to the tuberculin immunization response. The immune reaction induced by an ovalbumin challenge to animals previously sensitized with ovalbumin in Complete Freund's Adjuvant, is characterized by swelling (edema) at the site of challenge, e.g. the mouse ear. Dexamethasone, an anti-inflammatory steroid, reduces cell-mediated immune responses and was employed to validate the responsiveness of the assay to pharmacological treatment.
Female BALB/cJW mice were bred at the University of Lodz, Lodz, Poland and housed in groups of 8 in makrolon cages with a 12 h light-dark cycle. Mice were given free access to food (Agropol S. j., Motycz, Poland) and water.
Sensitization: The protein antigen, ovalbumin, was reconstituted in PBS at 4 mg/ml. An ovalbumin-CFA emulsion was prepared by mixing the protein solution with the CFA suspension at a ratio of 1:1, using two Luer-lock syringes. The emulsion was tested by putting a drop of emulsion onto PBS; if the emulsion remained as a tight droplet on the PBS, the emulsion was deemed ready. Mice were sensitized by subcutaneously injecting 25 μL of emulsion into each side of the tail (100 μg ovalbumin per mouse).
Challenge: On the sixth day after sensitization, DTH was elicited by challenging animals subcutaneously (gauge 30 needle, B. Braun Melsungen, Melsungen, Germany) in the left ears with 10 μL of a 1% suspension of heat-aggregated ovalbumin (HOVA) (100 μg ovalbumin per mouse). The right ears were administered subcutaneously with PBS and served to determine the individual differences in ear thicknesses. HOVA was prepared by heating a 5% solution of ovalbumin in saline for 1 h at 80° C. with occasional swirling. After cooling to room temperature and centrifugation (400 g, 10 min at 4° C.), the pellet was washed twice with saline, resuspended at 2% in PBS and aliquots stored at −30° C. Before injection, HOVA was diluted with an equal volume of PBS and sonicated. Ear thickness was measured with a precise spring-loaded caliper (Art. No. 7309, Mitutoyo, Kawasaki, Japan) before challenge, and 24 h after challenge.
Sensitization, challenge and ear thickness measurement were performed under anesthesia (ketamine 80 mg/kg plus xylazine 8 mg/kg, intraperitoneally).
The anti-inflammatory effects of compound 1a were compared to a vehicle control (0.5% methyl cellulose solution) and to the reference drug, dexamethasone. Test compound was given at 25 or 100 mg/kg orally by gavage (Art. No. 432093, Harvard Apparatus GmbH, March-Hugstetten, Germany) 16 h and 3 h before sensitization and then twice daily with the final dose given 3 h prior to ear challenge (a total of 14 administrations). Dexamethasone was given at 0.1 or 1 mg/kg orally by gavage 3 h before sensitization and once daily with the final dose given 3 h prior to antigen challenge (a total of 7 administrations). All administrations were given in a volume of 10 mL/kg.
To account for individual variability, the increase in right ear thickness, before and 24 h after administration of PBS, was subtracted from the HOVA-induced increase in left ear thickness. […]
Mean and standard deviation (SD) were calculated from individual ear edema values. […]

SMILES	MTC (maximum tolerated concentration) (RBL-2H3 cells [1]) [µM]	SI (safety index) (RBL-2H3 cells [1])	IC50 (RBL-2H3 cells [2]) [µM]	clinical signs of arthritis [3]	Inhibition of mouse ear swelling ([4]; comparison with dexamethasone, 1 mg/kg oral)	Inhibition of mouse ear swelling ([4]; comparison with dexamethasone, 1 mg/kg oral, listed as dexamethasone) [%]	Inhibition of mouse ear swelling ([4]; comparison with dexamethasone, 3 mg/kg oral)	Inhibition of mouse ear swelling ([4]; comparison with dexamethasone, 3 mg/kg oral, listed as dexamethasone) [%]	Inhibition of mouse ear swelling (DTH response in mice; 0.1 mg/kg orally once daily) [%]	Inhibition of mouse ear swelling (DTH response in mice; 1.0 mg/kg orally once daily) [%]	inhibitory efficacy relative to 1a at its optimal administration time of 4 h ([4]; 100 mg/kg oral, 16 h before challenge) [%]	Inhibition of mouse ear swelling ([4]; administration time study, 100 mg/kg oral, 16 h before TDI challenge)
CCCCCCCCCCCCCCN(C)CC(=O)N(C)C[C@H](O)[C@@H](O)[C@H](O)[C@H](O)CO [Compound 1b, N-(2-(Methyl(tetradecyl)amino)acetyl)-N-methyl-D-glucamine hydrotrifluoroacetate]	50	10.2	4.9									
CCCCCCCCCCCCN(C)CC(=O)N(C)C[C@H](O)[C@@H](O)[C@H](O)[C@H](O)CO [Compound 1c, N-(2-(Methyl(dodecyl)amino)acetyl)-N-methyl-D-glucamine hydrotrifluoroacetate]	100	8.1	12.3									
CCCCCCCCCCCCCC[N+](C)(C)CC(=O)N(C)CC(O)CO (stereo not drawn) [Compound 1d, N-(2-(Dimethyl(tetradecyl)ammonio)acetyl)-N-methyl-2,3-dihydroxypropylamine trifluoroacetate]	75	24.2	3.1									
C[C@@H]1C[C@H]2[C@@H]3CCC4=CC(=O)C=C[C@]4(C)[C@@]3(F)[C@@H](O)C[C@]2(C)[C@@]1(O)C(=O)CO [Dexamethasone, reference compound]				nearly completely suppressed	78.6*** %	78	87.1*** %	87	14	53		
CCCCCCCCCCCCCCCCOP(=O)([O-])OCC[N+](C)(C)C [Miltefosine, reference compound]	25	6.0	4.2								75	47% and 47.3^§ %

— patent publication US10143668B2, “Hydroxy-substituted amino and ammonium derivatives and their medical use” (GRI BIO, INC., priority 2011, dated 2018)
